Experiment in all cases: isothermal titration calorimetry
Common to all, as to format: binding
Conditions in all cases: read-out: Ka (M^-1) (converted)
A general note: In ITC the heat of successive injections is recorded.

Assay [1] has as its target T1, eArgRS (E. coli arginyl-tRNA synthetase, ArgRS) (Escherichia coli, UniProt P11875, Y313A).
T1 construct: gene argS; full length, 577 residues; pET-28a-SUMO in E. coli BL21(DE3), N-terminal His-SUMO tag cleaved by Ulp1; mutants made in pET22b/ArgRS
T1 sequence (P11875 1-577 Y313A): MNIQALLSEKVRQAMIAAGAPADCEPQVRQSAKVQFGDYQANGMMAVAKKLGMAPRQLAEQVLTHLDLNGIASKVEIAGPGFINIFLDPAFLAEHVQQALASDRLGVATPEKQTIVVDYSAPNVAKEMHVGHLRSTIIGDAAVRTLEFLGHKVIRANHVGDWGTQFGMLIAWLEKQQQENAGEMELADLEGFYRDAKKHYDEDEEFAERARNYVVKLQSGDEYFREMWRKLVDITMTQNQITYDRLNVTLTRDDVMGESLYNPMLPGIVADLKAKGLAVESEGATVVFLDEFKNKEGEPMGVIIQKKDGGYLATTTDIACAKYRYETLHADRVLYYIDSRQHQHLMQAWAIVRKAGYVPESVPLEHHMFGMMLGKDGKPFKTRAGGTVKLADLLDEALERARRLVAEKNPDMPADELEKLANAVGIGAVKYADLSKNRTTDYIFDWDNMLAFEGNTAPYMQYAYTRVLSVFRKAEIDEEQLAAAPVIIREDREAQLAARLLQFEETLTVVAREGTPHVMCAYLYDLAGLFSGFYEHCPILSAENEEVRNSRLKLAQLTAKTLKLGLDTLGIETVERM
From the text:
(§1) isothermal titration calorimetry on eArgRS (E. coli arginyl-tRNA synthetase, ArgRS)

Assay [2] concerns the target T2, eArgRS (E. coli arginyl-tRNA synthetase, ArgRS) (Escherichia coli, UniProt P11875, R324A).
T2 construct: gene argS; full length, 577 residues; pET-28a-SUMO in E. coli BL21(DE3), N-terminal His-SUMO tag cleaved by Ulp1; mutants made in pET22b/ArgRS
T2 sequence (P11875 1-577 R324A): T1 sequence (P11875 1-577 Y313A) with A313Y, R324A
Description: as §1

The target of assay [3] is T3, eArgRS (E. coli arginyl-tRNA synthetase, ArgRS) (Escherichia coli, UniProt P11875).
T3 construct: gene argS; full length, 577 residues; pET-28a-SUMO in E. coli BL21(DE3), N-terminal His-SUMO tag cleaved by Ulp1; mutants made in pET22b/ArgRS
T3 sequence (P11875 1-577): T1 sequence (P11875 1-577 Y313A) with A313Y
Description: as §1

Numbering of substitutions follows the chain as printed.

Consider `N=C(N)NCCC[C@H](N)C(=O)O` [L-arginine], for which the values for the Kd in assay [1], in assay [2] and in assay [3] were 80.6 µM, 191 µM and 46.5 µM, respectively.

Values taken from publication PMC3956977, “Crystal structure of E. coli arginyl-tRNA synthetase and ligand binding studies revealed key residues in arginine recognition” (Protein & Cell, 2014).
